The values below come from patent US20230398114A1, “METHODS OF TREATING CORONAVIRUS DISEASE AND COMPOUNDS FOR SAME” (priority 2020, published 2023).

Each structure is given as a SMILES string. Several values for one entry are separate records, joined by “and”; a condition that tells them apart may be missing. Equal entries are not always repeated. Where two headings read alike, the source gives them in different places.

Series [1] concerns NR-53516 SARS-Related Coronavirus 2 Isolate New York—PV09158/2020. Format: cell-based, SARS-CoV-2. The conditions noted are these: Vero-76 cells, after 4 days.
For series [2], the system named is USA-WA1/2020 (SARS-CoV-2) virus. The class given is in vivo, K18-hACE2 mice. The conditions noted are these: for Viral content by lung RT-qPCR, Log10, group AVG / Viral content by lung RT-qPCR, Mean Result, group AVG: day 6, 7 mice per group; for Viral content by lung RT-qPCR, Log10, group AVG / Viral content by lung RT-qPCR, Mean Result, group AVG / Viral content by lung RT-qPCR, Log10 (individual animals) / Viral content by lung RT-qPCR, Mean Result (individual animals): Imatinib 100 mg/kg, Niclosamide 200 mg/kg, alone or combined; for Viral content by lung RT-qPCR, Log10 (individual animals) / Viral content by lung RT-qPCR, Mean Result (individual animals): day 6, oral gavage once daily, Mebendazole 50 mg/kg. In general terms: Quantitative PCR measures a nucleic acid by following its amplification.

Series [3] shares this test system. Format: in vivo, K18-hACE2 mice. As to conditions: for Lung (log10 TCID50/mL), group AVG: day 6, 7 mice per group, Mebendazole 50 mg/kg po; for Lung (log10 TCID50/mL), group AVG / Lung (log10 TCID50/mL), individual animals: Imatinib 100 mg/kg, Niclosamide 200 mg/kg, alone or combined; for Lung (log10 TCID50/mL), individual animals: day 6, Mebendazole 50 mg/kg po once daily.

Series [4] deals with Vero 76 African green monkey kidney cells. The conditions noted are these: Vero 76 cells, any concentration tested up to 100 μM.
The next series concerns Calu-3. The conditions noted are these: Calu-3 cells, any concentration tested up to 100 μM.
The conditions of series [5]: oral Imatinib dose of 400 mg/day; cited from earlier work.
Series [6] deals with Mast/stem cell growth factor receptor Kit (Homo sapiens, UniProt P10721). The conditions noted are these: cited from earlier work.
A further series has as its system SARS-CoV-2. As to conditions: human hepatoma cell line (Huh 7.5 cells) infected with SARS-CoV-2; cited from earlier work.
Series [7] deals with SARS-CoV-2 (USA-WA1/2020 Isolate). Kind of series: microbe, parasite or virus in culture. The class given is cell-based. The conditions noted are these: Calu-3 cells.
The conditions of series [8]: cited from earlier work.
A further series deals with human coronavirus NL63. As to conditions: microtubule inhibitor, compared with actin inhibitors; cited from earlier work.
[9] abbreviates: day 6, Mebendazole 50 mg/kg po, alone or with Imatinib 100 mg/kg po.

Sequence of Mast/stem cell growth factor receptor Kit (P10721 26-976, species assumed): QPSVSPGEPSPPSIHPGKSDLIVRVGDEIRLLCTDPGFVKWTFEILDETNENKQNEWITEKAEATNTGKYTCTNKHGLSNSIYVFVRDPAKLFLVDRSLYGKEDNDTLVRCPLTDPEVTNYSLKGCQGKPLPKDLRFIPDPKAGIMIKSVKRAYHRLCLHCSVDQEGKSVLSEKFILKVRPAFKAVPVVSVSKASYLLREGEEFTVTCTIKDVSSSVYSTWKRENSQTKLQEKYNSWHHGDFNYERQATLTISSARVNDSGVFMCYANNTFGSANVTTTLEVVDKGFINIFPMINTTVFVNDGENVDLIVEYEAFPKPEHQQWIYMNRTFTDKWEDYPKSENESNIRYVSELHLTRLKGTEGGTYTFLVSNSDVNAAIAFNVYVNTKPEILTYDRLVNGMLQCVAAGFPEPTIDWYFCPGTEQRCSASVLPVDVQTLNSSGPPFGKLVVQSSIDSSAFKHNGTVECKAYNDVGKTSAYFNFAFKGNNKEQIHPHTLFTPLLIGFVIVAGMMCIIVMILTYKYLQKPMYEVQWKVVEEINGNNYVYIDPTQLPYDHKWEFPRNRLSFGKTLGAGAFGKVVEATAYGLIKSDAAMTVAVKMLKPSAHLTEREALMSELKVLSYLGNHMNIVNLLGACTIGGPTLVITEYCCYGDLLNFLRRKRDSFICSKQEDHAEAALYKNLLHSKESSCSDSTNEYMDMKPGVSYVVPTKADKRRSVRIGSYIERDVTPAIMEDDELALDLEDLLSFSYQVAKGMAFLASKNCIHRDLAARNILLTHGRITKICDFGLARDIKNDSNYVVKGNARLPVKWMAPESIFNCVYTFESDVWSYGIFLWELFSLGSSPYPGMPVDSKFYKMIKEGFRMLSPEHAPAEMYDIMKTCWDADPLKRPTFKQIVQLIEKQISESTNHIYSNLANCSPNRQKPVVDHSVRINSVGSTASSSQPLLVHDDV

For the compound `CNC(=O)c1ccccc1Sc1ccc2c(/C=C/c3ccccn3)n[nH]c2c1` [Axitinib], the “reduction in viral load (Average Virus TCID50/ml*10^6)” value (from here on “reduction in viral load”) in series [1] (500 nano molar) is listed as 66.4%.

On to `COc1cc(Nc2c(C#N)cnc3cc(OCCCN4CCN(C)CC4)c(OC)cc23)c(Cl)cc1Cl` [Bosutinib], for which, in [1] (50 nano molar), the “reduction in viral load” value is reported as 47.3%.

As to `COc1cc2ncnc(Nc3ccc(F)c(Cl)c3)c2cc1OCCCN1CCOCC1` [Gefitinib], in [1] (50 nano molar), the “reduction in viral load” value came to 53.54%.

With `Cc1ccc(NC(=O)c2ccc(CN3CCN(C)CC3)cc2)cc1Nc1nccc(-c2cccnc2)n1` [Imatinib], in series [2] (Mebendazole 50 mg/kg po), the “Viral content by lung RT-qPCR, Log10, group AVG” value (from here on “Viral content … Log10, group AVG”) is recorded as 7.8 and the “Viral content by lung RT-qPCR, Mean Result, group AVG” value worked out at 9.54E+07. In [2], the “Viral content by lung RT-qPCR, Log10 (individual animals)” value is 7.6 and 7.7 and 7.9 (2×) and 8.0 and 7.3 and 8.5; the “Viral content by lung RT-qPCR, Mean Result (individual animals)” value was 3.67E+07 and 5.37E+07 and 7.80E+07 and 9.13E+07 and 2.15E+07 and 7.53E+07 and 3.12E+08. Further, the “animals positively affected (lung TCID50)” value in series [3] (day 6, 7 animals per group) is given as “a single animal”. In addition, in series [3], the “Lung (log10 TCID50/mL), group AVG” value is 7.4 log10 TCID50/mL; the “Lung (log10 TCID50/mL), individual animals” value is 8.3 log10 TCID50/mL and 7.5 log10 TCID50/mL and 5.3 log10 TCID50/mL and 7.6 log10 TCID50/mL and 8.5 log10 TCID50/mL and 8.0 log10 TCID50/mL and 6.5 log10 TCID50/mL. Further, the “cytotoxicity (MTT)” value in series [4] is “no cytotoxicity was observed”. The “cytotoxicity (MTT)” value with Calu-3 was “no cytotoxicity was observed”. Besides, the “reduction in viral load” value in series [1] (10 micro molar) came to 29.6%. In series [5], the “expected trough plasma concentration” value was 1.7 µM. For the same compound, the “known to target (value in brackets, measure not stated)” value in series [6] was 16 nM.

Take `COC(=O)Nc1nc2ccc(C(=O)c3ccccc3)cc2[nH]1` [Mebendazole]: in [2] (Mebendazole 50 mg/kg po), the “Viral content … Log10, group AVG” value came out at 7.8 and the “Viral content by lung RT-qPCR, Mean Result, group AVG” value is recorded as 4.36E+07. In series [2], the “Viral content by lung RT-qPCR, Log10 (individual animals)” value was 7.9 (2×) and 7.7 and 7.3 (2×) and 7.6 and 7.5; the “Viral content by lung RT-qPCR, Mean Result (individual animals)” value is 7.15E+07 and 4.97E+07 and 7.76E+07 and 1.90E+07 and 2.03E+07 and 3.73E+07 and 2.95E+07. In addition, in series [2] (setting [9]), the “Mean % Reduction of Lung Tissue RT-qPCR Titers vs. the Group Mean of Placebo Treated Mice” value is recorded as 44.2%; the “Percent Reduction of Lung Tissue RT-qPCR Titers (Individual Animals) vs. the Group Mean of Placebo Treated Mice” value was 8.45% and 36.36% and 0.64% and 75.67% and 74.01% and 52.24% and 62.23%. In series [3], the “Lung (log10 TCID50/mL), group AVG” value is 5.8 log10 TCID50/mL; the “Lung (log10 TCID50/mL), individual animals” value is 6.0 log10 TCID50/mL and 5.3 log10 TCID50/mL (2×) and 4.8 log10 TCID50/mL and 5.5 log10 TCID50/mL and 7.3 log10 TCID50/mL and 6.5 log10 TCID50/mL. Also, in the series with SARS-CoV-2, the “antiviral activity compared to the Vero E6 cells” value is “appeared to be lower”. In series [7] (2.3-5000 nM), the “inhibition of SARS-CoV-2 (in words)” value is on record as “Complete or near complete inhibition”. Also, the EC50 in [7] (Severe acute respiratory syndrome coronavirus 2, 24 h pretreatment, read 48 h after inoculation, MOI 0.005, read-out: EC50, inhibition of SARS-CoV-2) is 102 nM. Besides, in series [8] (humans, extensive first-pass metabolism), the “share of a single oral dose that reaches systemic circulation” value is “less than 10%”. In addition, in series [8] (in vivo), the elimination half-life was 3 to 6 h. The “higher exposure at steady-state” value in series [8] (long-term oral administration) is given as approximately 3 fold. In addition, in [8] (oral dose), the “share of an oral dose excreted in urine” value was less than 2%.

With `O=C(Nc1ccc([N+](=O)[O-])cc1Cl)c1cc(Cl)ccc1O` [Niclosamide], in [2] (Mebendazole 50 mg/kg po), the “Viral content … Log10, group AVG” value came to 7.7 and the “Viral content by lung RT-qPCR, Mean Result, group AVG” value came out at 8.46E+07. For the same compound, in series [2], the “Viral content by lung RT-qPCR, Log10 (individual animals)” value was 7.6 and 6.7 and 7.5 (2×) and 8.0 and 8.5 and 7.9; the “Viral content by lung RT-qPCR, Mean Result (individual animals)” value was 4.28E+07 and 5.54E+06 and 3.04E+07 and 9.85E+07 and 3.08E+08 and 7.72E+07 and 2.97E+07. In series [3], the “Lung (log10 TCID50/mL), group AVG” value amounted to 6.1 log10 TCID50/mL; the “Lung (log10 TCID50/mL), individual animals” value was 6.3 log10 TCID50/mL and 5.5 log10 TCID50/mL (3×) and 8.5 log10 TCID50/mL and 6.8 log10 TCID50/mL and 4.3 log10 TCID50/mL.

Regarding `COC(=O)Nc1nc2ccc(C(=O)c3cccs3)cc2[nH]1` [nocodazole], the “reduction of virus entry” value with human coronavirus NL63 was “did not”.

As usually defined, the EC50 is the midpoint of the concentration-response curve.
